Experimental data published in PubChem BioAssay AID1963852 (Molecular Pharmacology Branch, DTP, NCI, 2024).

Tested on: 282377-053-R-J1-PDC complex spheroid viability
Test: Anticancer human tumor 282377-053-R-J1-PDC patient-derived colon adenocarcinoma cell line growth inhibition [POLQ]
Conditions: for IC50: curve of first compound; for viability, T/C: stronger effect = lower value
How it was run: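 Patient-derived tumour cells were co-cultured with HUVEC and mesenchymal stem cells as multicellular spheroids at 37 °C. They were treated with POLQ inhibitors (novobiocin, ART-558, RP6685) alone or combined with other agents. Top concentrations were at or near clinical Cmax (otherwise 10 microM; SN-38 at 1 microM), decreasing in half-log steps.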

[1] = second compound 0.0316 µM, first compound 0.0316 µM
[2] = second compound 0.0316 µM, first compound 0.1 µM
[3] = second compound 0.0316 µM, first compound 0.316 µM
[4] = second compound 0.0316 µM, first compound 1 µM
[5] = second compound 0.0316 µM, first compound 3.16 µM
[6] = second compound 0.0316 µM, first compound 10 µM
[7] = second compound 0.1 µM, first compound 0.0316 µM
[8] = second compound 0.1 µM, first compound 0.1 µM
[9] = second compound 0.1 µM, first compound 0.316 µM
[10] = second compound 0.1 µM, first compound 1 µM
[11] = second compound 0.1 µM, first compound 3.16 µM
[12] = second compound 0.1 µM, first compound 10 µM
[13] = second compound 0.316 µM, first compound 0.0316 µM
[14] = second compound 0.316 µM, first compound 0.1 µM
[15] = second compound 0.316 µM, first compound 0.316 µM
[16] = second compound 0.316 µM, first compound 1 µM
[17] = second compound 0.316 µM, first compound 3.16 µM
[18] = second compound 0.316 µM, first compound 10 µM
[19] = second compound 1 µM, first compound 0.0316 µM
[20] = second compound 1 µM, first compound 0.1 µM
[21] = second compound 1 µM, first compound 0.316 µM
[22] = second compound 1 µM, first compound 1 µM
[23] = second compound 1 µM, first compound 3.16 µM
[24] = second compound 1 µM, first compound 10 µM
[25] = second compound 3.16 µM, first compound 0.0316 µM
[26] = second compound 3.16 µM, first compound 0.1 µM
[27] = second compound 3.16 µM, first compound 0.316 µM
[28] = second compound 3.16 µM, first compound 1 µM
[29] = second compound 3.16 µM, first compound 3.16 µM
[30] = second compound 3.16 µM, first compound 10 µM
[31] = second compound 10 µM, first compound 0.0316 µM
[32] = second compound 10 µM, first compound 0.1 µM
[33] = second compound 10 µM, first compound 0.316 µM
[34] = second compound 10 µM, first compound 1 µM
[35] = second compound 10 µM, first compound 3.16 µM
[36] = second compound 10 µM, first compound 10 µM
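Also: spheroids exposed to compounds for seven days.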
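For viability, T/C in this document: 100% = DMSO vehicle control viability.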

Structure (SMILES): C#Cc1c(F)ccc2cc(O)cc(-c3ncc4c(N5CC6CCC(C5)N6)nc(OCC56CCCN5CC(F)C6)nc4c3F)c12 (stereo not given) + Cc1cccc(N(C)C(=O)C2C(O)CCN2c2nc(C)cc(C(F)(F)F)c2C#N)c1
- IC50 (second compound 0.0316 µM): > 10 µM
- IC50 (second compound 0.1 µM): > 10 µM
- IC50 (second compound 0.316 µM): > 10 µM
- IC50 (second compound 1 µM): > 10 µM
- IC50 (second compound 3.16 µM): > 10 µM
- IC50 (second compound 10 µM): > 10 µM
- viability, T/C [1]: 105%
- viability, T/C [2]: 84%
- viability, T/C [3]: 77.4%
- viability, T/C [4]: 89.2%
- viability, T/C [5]: 68.6%
- viability, T/C [6]: 86.9%
- viability, T/C [7]: 84.1%
- viability, T/C [8]: 82.4%
- viability, T/C [9]: 112%
- viability, T/C [10]: 84.8%
- viability, T/C [11]: 106%
- viability, T/C [12]: 81%
- viability, T/C [13]: 91.9%
- viability, T/C [14]: 79.2%
- viability, T/C [15]: 105%
- viability, T/C [16]: 93.6%
- viability, T/C [17]: 85.2%
- viability, T/C [18]: 66.2%
- viability, T/C [19]: 104%
- viability, T/C [20]: 80.4%
- viability, T/C [21]: 86%
- viability, T/C [22]: 81.3%
- viability, T/C [23]: 86.9%
- viability, T/C [24]: 70.4%
- viability, T/C [25]: 91.9%
- viability, T/C [26]: 97.6%
- viability, T/C [27]: 73.3%
- viability, T/C [28]: 75%
- viability, T/C [29]: 77.9%
- viability, T/C [30]: 74.3%
- viability, T/C [31]: 81.7%
- viability, T/C [32]: 82.4%
- viability, T/C [33]: 82.3%
- viability, T/C [34]: 68.5%
- viability, T/C [35]: 70.6%
- viability, T/C [36]: 81%

Structure (SMILES): CC1COCCN1c1cc(C2(O)CC3CCC(C2)O3)c2cnn(-c3ccn[nH]3)c2n1 (stereo not given) + Cc1cccc(N(C)C(=O)C2C(O)CCN2c2nc(C)cc(C(F)(F)F)c2C#N)c1
- IC50 (second compound 0.0316 µM): 0.524 µM
- IC50 (second compound 0.1 µM): 0.3 µM
- IC50 (second compound 0.316 µM): 0.242 µM
- IC50 (second compound 1 µM): 0.489 µM
- IC50 (second compound 3.16 µM): 0.23 µM
- IC50 (second compound 10 µM): 0.302 µM
- viability, T/C [1]: 106%
- viability, T/C [2]: 74.9%
- viability, T/C [3]: 67.9%
- viability, T/C [4]: 33%
- viability, T/C [5]: 25.5%
- viability, T/C [6]: 16.7%
- viability, T/C [7]: 83.8%
- viability, T/C [8]: 83.6%
- viability, T/C [9]: 48.4%
- viability, T/C [10]: 28.1%
- viability, T/C [11]: 30.4%
- viability, T/C [12]: 21.9%
- viability, T/C [13]: 78.9%
- viability, T/C [14]: 68.3%
- viability, T/C [15]: 44.6%
- viability, T/C [16]: 27.3%
- viability, T/C [17]: 29.2%
- viability, T/C [18]: 19.8%
- viability, T/C [19]: 80.7%
- viability, T/C [20]: 79.2%
- viability, T/C [21]: 54%
- viability, T/C [22]: 37.2%
- viability, T/C [23]: 27%
- viability, T/C [24]: 13.9%
- viability, T/C [25]: 78.7%
- viability, T/C [26]: 55.2%
- viability, T/C [27]: 49%
- viability, T/C [28]: 30%
- viability, T/C [29]: 31.2%
- viability, T/C [30]: 13.6%
- viability, T/C [31]: 76%
- viability, T/C [32]: 66.1%
- viability, T/C [33]: 49.2%
- viability, T/C [34]: 30.9%
- viability, T/C [35]: 31.6%
- viability, T/C [36]: 14.4%

Structure (SMILES): CCc1cc2c(N3CCc4c(cc(Cn5ccnc5)cc4-c4cn(C)nc4C(F)(F)F)C3=O)cc(C)nc2c(OC)n1 + Cc1cccc(N(C)C(=O)C2C(O)CCN2c2nc(C)cc(C(F)(F)F)c2C#N)c1
- IC50 (second compound 0.0316 µM): > 10 µM
- IC50 (second compound 0.1 µM): > 10 µM
- IC50 (second compound 0.316 µM): > 10 µM
- IC50 (second compound 1 µM): > 10 µM
- IC50 (second compound 3.16 µM): > 10 µM
- IC50 (second compound 10 µM): > 10 µM
- viability, T/C [1]: 104%
- viability, T/C [2]: 99.8%
- viability, T/C [3]: 89.7%
- viability, T/C [4]: 103%
- viability, T/C [5]: 108%
- viability, T/C [6]: 134%
- viability, T/C [7]: 85.9%
- viability, T/C [8]: 102%
- viability, T/C [9]: 91.2%
- viability, T/C [10]: 91.2%
- viability, T/C [11]: 112%
- viability, T/C [12]: 117%
- viability, T/C [13]: 90.3%
- viability, T/C [14]: 99.8%
- viability, T/C [15]: 111%
- viability, T/C [16]: 110%
- viability, T/C [17]: 104%
- viability, T/C [18]: 108%
- viability, T/C [19]: 111%
- viability, T/C [20]: 102%
- viability, T/C [21]: 114%
- viability, T/C [22]: 89.9%
- viability, T/C [23]: 108%
- viability, T/C [24]: 107%
- viability, T/C [25]: 110%
- viability, T/C [26]: 99.5%
- viability, T/C [27]: 101%
- viability, T/C [28]: 93.8%
- viability, T/C [29]: 122%
- viability, T/C [30]: 115%
- viability, T/C [31]: 96.8%
- viability, T/C [32]: 98.3%
- viability, T/C [33]: 97%
- viability, T/C [34]: 96.8%
- viability, T/C [35]: 104%
- viability, T/C [36]: 126%

Structure (SMILES): COc1cc2cc(C(=O)CCC(=O)O)sc2cc1OC + Cc1cccc(N(C)C(=O)C2C(O)CCN2c2nc(C)cc(C(F)(F)F)c2C#N)c1
- IC50 (second compound 0.0316 µM): > 10 µM
- IC50 (second compound 0.1 µM): > 10 µM
- IC50 (second compound 0.316 µM): > 10 µM
- IC50 (second compound 1 µM): > 10 µM
- IC50 (second compound 3.16 µM): > 10 µM
- IC50 (second compound 10 µM): > 10 µM
- viability, T/C [1]: 106%
- viability, T/C [2]: 112%
- viability, T/C [3]: 101%
- viability, T/C [4]: 106%
- viability, T/C [5]: 109%
- viability, T/C [6]: 104%
- viability, T/C [7]: 112%
- viability, T/C [8]: 107%
- viability, T/C [9]: 102%
- viability, T/C [10]: 95.8%
- viability, T/C [11]: 115%
- viability, T/C [12]: 89.4%
- viability, T/C [13]: 119%
- viability, T/C [14]: 107%
- viability, T/C [15]: 113%
- viability, T/C [16]: 97%
- viability, T/C [17]: 107%
- viability, T/C [18]: 95.1%
- viability, T/C [19]: 116%
- viability, T/C [20]: 103%
- viability, T/C [21]: 107%
- viability, T/C [22]: 107%
- viability, T/C [23]: 103%
- viability, T/C [24]: 105%
- viability, T/C [25]: 106%
- viability, T/C [26]: 106%
- viability, T/C [27]: 103%
- viability, T/C [28]: 108%
- viability, T/C [29]: 113%
- viability, T/C [30]: 108%
- viability, T/C [31]: 107%
- viability, T/C [32]: 112%
- viability, T/C [33]: 117%
- viability, T/C [34]: 100%
- viability, T/C [35]: 122%
- viability, T/C [36]: 109%

Structure (SMILES): O=C(Nc1ccc(O)c(NS(=O)(=O)c2ccc(F)cc2)c1)c1ccc(-c2ccccc2)cc1 + Cc1cccc(N(C)C(=O)C2C(O)CCN2c2nc(C)cc(C(F)(F)F)c2C#N)c1
- IC50 (second compound 0.0316 µM): > 10 µM
- IC50 (second compound 0.1 µM): > 10 µM
- IC50 (second compound 0.316 µM): > 10 µM
- IC50 (second compound 1 µM): > 10 µM
- IC50 (second compound 3.16 µM): > 10 µM
- IC50 (second compound 10 µM): > 10 µM
- viability, T/C [1]: 122%
- viability, T/C [2]: 119%
- viability, T/C [3]: 98.4%
- viability, T/C [4]: 102%
- viability, T/C [5]: 107%
- viability, T/C [6]: 116%
- viability, T/C [7]: 106%
- viability, T/C [8]: 117%
- viability, T/C [9]: 99.5%
- viability, T/C [10]: 108%
- viability, T/C [11]: 124%
- viability, T/C [12]: 118%
- viability, T/C [13]: 104%
- viability, T/C [14]: 107%
- viability, T/C [15]: 106%
- viability, T/C [16]: 103%
- viability, T/C [17]: 116%
- viability, T/C [18]: 120%
- viability, T/C [19]: 106%
- viability, T/C [20]: 110%
- viability, T/C [21]: 99.8%
- viability, T/C [22]: 109%
- viability, T/C [23]: 117%
- viability, T/C [24]: 119%
- viability, T/C [25]: 112%
- viability, T/C [26]: 118%
- viability, T/C [27]: 104%
- viability, T/C [28]: 108%
- viability, T/C [29]: 126%
- viability, T/C [30]: 115%
- viability, T/C [31]: 106%
- viability, T/C [32]: 105%
- viability, T/C [33]: 99.7%
- viability, T/C [34]: 97%
- viability, T/C [35]: 106%
- viability, T/C [36]: 115%
